Drawing on ChEMBL document CHEMBL6120974, “Hydrazide-Based Class I Selective HDAC Inhibitors Completely Reverse Chemoresistance Synergistically in Platinum-Resistant Solid Cancer Cells” (J Med Chem, 2024), this text covers Activity, IC50 and inhibition for two compounds.

A word on the pIC50: it is the negative decadic logarithm of the IC50, by convention in mol/L. A high value points to a low IC50. Usually inhibition stands for the percentage by which the read-out fell short of the control.

pIC50: −log10 of the molar value. The source made the active and inactive calls. No cut-off for these calls is given here. Where only a bound is given, the exact number is not on record here.

Assay [1] deals with CAL-27. As to the kind of experiment: Induction of apoptosis in human CAL-27 cells assessed as increase in caspase 3/7 activation at 0.316 uM in presence of cisplatin preincubated with compound for 48 hrs co-treated with cisplatin and measured after 24 hrs by capase3/7 green dye based analysis. It counts as functional, cell-based. As to conditions: time 72.0 hrs.
Assay [2] deals with Cal27CisR. As to the kind of experiment: Induction of apoptosis in cisplatin resistant human Cal27CisR cells assessed as apoptotic nuclei at sub-G1 phase at 0.316 uM incubated for 48 hrs by flow cytometric analysis. It counts as functional, cell-based.
The subject of assay [3] is CAL-27. As to the kind of experiment: Induction of apoptosis in human CAL-27 cells assessed as increase in apoptotic nuclei at sub-G1 phase at 0.316 uM in presence of cisplatin at 3 uM preincubated with compound for 48 hrs prior to addition of cisplatin and measured after 24 hrs by flow cytometric analysis. The assay is classed as functional, cell-based. Conditions: time 72.0 hrs.

Another assay deals with A2780. As to the kind of experiment: Induction of apoptosis in human A2780 cells assessed as decrease in Bcl-2 protein level at 0.75 uM in presence of cisplatin at 3.5 uM preincubated with compound for 48 hrs prior to addition of cisplatin and measured after 24 hrs by Immunoblotting analysis. It counts as functional, cell-based. As to conditions: time 72.0 hrs. In general terms: In western blotting, separated proteins are transferred to a membrane and probed.

Assay [4] has as its system CAL-27. As to the kind of experiment: Induction of cell cycle arrest in human CAL-27 cells assessed as increase in p21 expression at 0.316 uM incubated for 48 hrs by Western blotting analysis. The assay is classed as functional, cell-based.
In assay [5] the test system is Cal27CisR. As to the kind of experiment: Induction of cell cycle arrest in cisplatin resistant human Cal27CisR cells assessed as increase in p21 expression at 0.316 uM incubated for 48 hrs by Western blotting analysis. The assay is classed as functional, cell-based.
The test system of assay [6] is Cal27CisR. As to the kind of experiment: Downregulation of survivin expression in cisplatin resistant human Cal27CisR cells at 0.316 uM incubated for 48 hrs by Immunoblotting analysis. The assay is classed as functional, cell-based.
The subject of assay [7] is CAL-27. As to the kind of experiment: Downregulation of BAX expression in human CAL-27 cells at 0.316 uM incubated for 48 hrs by Immunoblotting analysis. It counts as functional, cell-based.
Assay [8] relates to Cal27CisR. As to the kind of experiment: Induction of apoptosis in cisplatin resistant human Cal27CisR cells assessed as decrease in Bcl-2 expression at 0.316 uM incubated for 24 to 72 hrs by Immunoblotting analysis. It counts as functional, cell-based. As to conditions: time 24-72 hrs.
In assay [9] the test system is Cal27CisR. As to the kind of experiment: Induction of apoptosis in cisplatin resistant human Cal27CisR cells assessed as decrease in Bcl-2 expression at 0.316 uM in presence of cisplatin at 16.5 uM preincubated with compound for 24 to 72 hrs prior to addition of cisplatin and measured after 24 hrs by Immunoblotting analysis. It counts as functional, cell-based. Conditions: time 48-96 hrs.

The test system of assay [10] is Cal27CisR. As to the kind of experiment: Induction of apoptosis in cisplatin resistant human Cal27CisR cells assessed as decrease in survivin expression at 0.316 uM in presence of cisplatin at 16.5 uM preincubated with compound for 24 to 72 hrs prior to addition of cisplatin and measured after 24 hrs by Immunoblotting analysis. The assay is classed as functional, cell-based. Conditions: time 48-96 hrs.

In assay [11] the test system is Cal27CisR. As to the kind of experiment: Induction of apoptosis in cisplatin resistant human Cal27CisR cells assessed as decrease in p21 expression at 0.316 uM incubated for 24 to 72 hrs by Immunoblotting analysis. It counts as functional, cell-based. Conditions: time 24-72 hrs.
Assay [12] deals with Cal27CisR. As to the kind of experiment: Induction of apoptosis in cisplatin resistant human Cal27CisR cells assessed as decrease in p21 expression at 0.316 uM in presence of cisplatin at 16.5 uM preincubated with compound for 24 to 72 hrs prior to addition of cisplatin and measured after 24 hrs by Immunoblotting analysis. The assay is classed as functional, cell-based. Conditions: time 48-96 hrs.

Assay [13] relates to Cal27CisR. As to the kind of experiment: Induction of apoptosis in cisplatin resistant human Cal27CisR cells assessed as decrease in BIM expression at 0.316 uM in presence of cisplatin at 16.5 uM preincubated with compound for 24 to 72 hrs prior to addition of cisplatin and measured after 24 hrs by Immunoblotting analysis. The assay is classed as functional, cell-based. As to conditions: time 48-96 hrs.

For assay [14], the system named is Cal27CisR. As to the kind of experiment: Induction of apoptosis in cisplatin resistant human Cal27CisR cells assessed as decrease in BAX expression at 0.316 uM in presence of cisplatin at 16.5 uM preincubated with compound for 24 to 72 hrs prior to addition of cisplatin and measured after 24 hrs by Immunoblotting analysis. Conditions: time 48-96 hrs. It counts as functional, cell-based.

Assay [15] can be described thus: cells. As to conditions: Homo sapiens, A2780cisR.
Description: Inhibition of class IIa/8 HDAC (unknown origin) in cisplatin resistant human A2780 cisR cells using Boc-Lys(TFA)-AMC as substrate preincubated with compound for 18 hrs followed by substrate addition and measured after 3 hrs by NOVOstar microplate reader analysis
Assay [16] in a line: cells. Conditions: Homo sapiens, CAL-27.
Description: Inhibition of class IIa/8 HDAC (unknown origin) in human CAL-27 cells using Boc-Lys(TFA)-AMC as substrate preincubated with compound for 18 hrs followed by substrate addition and measured after 3 hrs by NOVOstar microplate reader analysis
The target of assay [17] is T1, Protein deacetylase HDAC6 (Homo sapiens) (UniProt Q9UBN7).
T1 sequence (whole entry): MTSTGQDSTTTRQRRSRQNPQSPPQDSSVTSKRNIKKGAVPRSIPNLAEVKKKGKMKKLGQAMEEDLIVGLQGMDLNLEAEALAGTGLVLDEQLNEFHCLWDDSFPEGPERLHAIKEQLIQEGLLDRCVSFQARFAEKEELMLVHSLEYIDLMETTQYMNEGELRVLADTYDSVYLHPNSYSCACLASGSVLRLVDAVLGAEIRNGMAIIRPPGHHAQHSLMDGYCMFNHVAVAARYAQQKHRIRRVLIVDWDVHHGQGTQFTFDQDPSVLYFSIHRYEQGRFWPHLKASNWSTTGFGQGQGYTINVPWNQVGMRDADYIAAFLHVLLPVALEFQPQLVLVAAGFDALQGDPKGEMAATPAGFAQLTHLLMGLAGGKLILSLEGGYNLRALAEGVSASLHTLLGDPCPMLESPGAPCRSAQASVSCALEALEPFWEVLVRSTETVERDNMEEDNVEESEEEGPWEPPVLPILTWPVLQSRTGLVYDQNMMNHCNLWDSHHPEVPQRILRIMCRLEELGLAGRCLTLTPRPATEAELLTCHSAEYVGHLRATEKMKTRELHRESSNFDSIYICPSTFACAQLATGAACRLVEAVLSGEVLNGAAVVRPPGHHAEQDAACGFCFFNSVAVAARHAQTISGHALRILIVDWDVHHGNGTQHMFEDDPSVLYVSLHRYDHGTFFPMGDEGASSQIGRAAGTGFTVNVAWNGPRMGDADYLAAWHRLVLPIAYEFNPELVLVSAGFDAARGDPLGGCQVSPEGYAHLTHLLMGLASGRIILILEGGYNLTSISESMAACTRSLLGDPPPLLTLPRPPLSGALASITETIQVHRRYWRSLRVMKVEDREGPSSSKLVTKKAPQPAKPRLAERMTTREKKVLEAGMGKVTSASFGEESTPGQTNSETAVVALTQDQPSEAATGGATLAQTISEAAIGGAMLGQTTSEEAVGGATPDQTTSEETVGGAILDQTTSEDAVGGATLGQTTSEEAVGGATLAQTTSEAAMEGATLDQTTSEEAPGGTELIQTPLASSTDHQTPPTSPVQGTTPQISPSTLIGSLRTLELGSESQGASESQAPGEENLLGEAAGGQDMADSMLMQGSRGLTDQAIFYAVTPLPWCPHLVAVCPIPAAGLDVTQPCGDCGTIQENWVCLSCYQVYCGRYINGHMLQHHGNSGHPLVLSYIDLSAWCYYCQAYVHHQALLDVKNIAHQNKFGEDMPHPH
As to the kind of experiment: Inhibition of N-terminal GST-tagged full length recombinant human HDAC6 (1 to 1215 end residues) expressed in sf9 cells at > 3.33 uM using ZMAL (Z-Lys(Ac)-AMC as fluorogenic substrate preincubated with compound for 60 mins followed by substrate addition and measured after 90 mins by fluorescence based microplate reader analysis relative to control.

Another assay concerns A2780cisR. As to the kind of experiment: Effect of Bcl-2 protein level in cisplatin resistant human A2780 cisR cells at 2 uM incubated for 48 hrs by Immunoblotting analysis. It counts as functional, cell-based.

Take `CCCNNC(=O)c1ccc(CN(CC(=O)NCc2ccccc2)C(=O)c2ccc(N(C)C)cc2)cc1`: the result with CAL-27 [1], in the assay on CAL-27 [3], in the assay with A2780, with CAL-27 [4], in the assay with Cal27CisR [5] and in the assay with Cal27CisR [6] was Active. The result in the assay on CAL-27 [7], with Cal27CisR [9], in the assay on Cal27CisR [10], in the assay with Cal27CisR [12], in the assay with Cal27CisR [13] and in the assay on Cal27CisR [14] was Active. The Activity entry in the assay with Cal27CisR [2] is listed as “Active; Moderate Percentage Of Apoptotic Nuclei Observed”. Also, the outcome with Cal27CisR [8] and in the assay with Cal27CisR [11] was inactive. Also, the pIC50 in “cells [15]” was 4.90; in the assay “cells [16]” it was 5.99.

As for `CCCCNNC(=O)c1ccc(CN(CC(=O)NCc2ccccc2)C(=O)c2ccc(N(C)C)cc2)cc1`, in assay [17], the inhibition is less than 25%. For the same compound, the result in the assay with CAL-27 [1], in the assay on CAL-27 [3], in the assay with A2780, in the assay with CAL-27 [4], in the assay with Cal27CisR [5] and in the assay on Cal27CisR [6] was Active. In addition, the result in the assay on CAL-27 [7] was Active. The Activity result in the assay on Cal27CisR [2] is recorded as “Active; Moderate Percentage Of Apoptotic Nuclei Observed”. For the same compound, the outcome with A2780cisR was inactive. Besides, the pIC50 is 4.96 in the assay “cells [15]” and 5.99 in the assay “cells [16]”.
